According to US20250017964A1, “ENGINEERING OR INDUCING PDGF AND/OR PDGFR SIGNALING TO ENHANCE NK CELL THERAPY” (City of Hope, priority 2021, published 2025):
One block for each substance: values may come before it.

Assays:
[1] = test system: PDGFRβ expression in human NK cells; experiment: Cytokine-induced PDGFRβ expression in purified human NK cells, flow cytometry; type: cell-based; conditions: 24 h
Description: Data shown are the percentages of PDGFRβ^+ NK cells among total NK cells (n=5). […] Bar=20 μm. […] Data represent three independent experiments. Data shown are means SD.
FIGS. 7A-7F. […] Data shown are representative histograms and mean fluorescence intensity (MFI) of PDGFRα. […] Expression levels of PDGFRβ were examined by flow cytometry (n=6). […] Data shown are the percentages of PDGFRβ^+ NK cells among total NK cells (n=5). […] Data shown are representative histograms with MFI of PDGFRβ expression. (F) Expression levels of PDGFRβ on NK cells from IL-15 transgenic (Tg) mice were determined by flow cytometry. Data shown are representative histograms. Data represent three independent experiments.
NK cells were cultured in RPMI 1640 with 10% heat-inactivated FBS (Gibco) at 37° C. in a 5% CO2 humidified incubator. For NK cell transduction, PDGFRB cDNA ORF clone (Cat: HG10514-G) was purchased from Sino Biological and cloned into pCDH-CMV-MCS-EF1-copGFP lentivirus vector (System Biosciences). To produce lentivirus, we transfected the lentiviral transfer vector DNA, together with psPAX2 packaging (Addgene) and pMD2.G envelope plasmid DNA (Addgene), into HEK293T cells; using a polyethyenimine (PEI) transfection protocol (Polysciences). Concentrated lentivirus was added to primary NK cells cultured in RPMI 1640 medium supplemented with 10% FCS and 10 jig/mL polybrene with 2,000×g centrifugation for 2 h. Cells were cultured for an additional 48 h. […] The cells were then collected for flow cytometry analysis. For the inhibition assay, NK cells were pretreated with the indicated inhibitors for 1 h, washed twice with RPMI 1640. and then treated with IL-15 for 24 h.
Cells were stained with the indicated cell-surface markers and/or fixed/permeabilized using a Fixation/Permeabilization Kit (eBioscience). For intracellular staining of IFN-γ and PDGF-D, 5 μg/ml Brefeldin A (BioLegend) was added for 4 h before cell harvest. Intracellular staining of Ki67 was performed by fixing and permeabilizing with the Foxp3/Transcription Factor Staining Kit (eBioscience).

[2] = test system: PDGFRB promoter; experiment: ChIP-qPCR, binding of p65 to the PDGFRB promoter; type: cell-based, human; conditions: IL-15-stimulated NK cells (1 h); not in resting NK cells
Protocol: FIGS. 2A-2I. IL-15-induced PDGFRβ expression is mediated by PI3K/AKT signaling. (A-B) Primary NK cells were treated with IL-15 (10 ng/ml) for the indicated times. mRNA levels of PDGFRB at different time points (A) (n=3) or at 1 h (B) (n=10) were examined by qPCR. (C-D) Primary NK cells were pretreated with actinomycin D (ActD, 5., g/ml) (C) or cycloheximide (CHX, 20 μg/ml) (D) for 1 h, washed twice with RPMI-1640, and then treated with IL-15 (10 ng/ml) for 24 h. DMSO was used as a control. Expression levels of PDGFRβ were examined by flow cytometry (n=5). Data shown are representative histograms and percentage of inhibition with the equation: % inhibition=[…]. (E) Primary NK cells were pretreated with wortmannin (1 μM), afuresertib (10 μM), TPCA-1 (1 μM), rapamycin (10 μM), torin1 (10 μM), decernotinib (10 μM), C118-9 (10 μM), STAT5-IN-1 (10 μM), AZD6244 (10 μM), or CI-1040 (10 μM) for 1 h, washed twice with RPMI 1640, and then treated with IL-15 (10 ng/ml) for 24 h. DMSO was used as control. Data shown are % of inhibition (n=5). The mean value of the inhibitory rate is shown. […] (G-I) Binding of p65 to the PDGFRB promoter in IL-15-treated NK cells (G) or resting NK cells (H) as determined by ChIP-qPCR or PCR (I) (n=3). […]
Primary NK cells were treated with IL-15 for 1 h. […] The enriched chromatin was analyzed by qPCR using the following primers: […]

[3] = test system: BCL-2, BCL-XL, and MCL-1; experiment: Immunoblot of BCL-2, BCL-XL and MCL-1 in NK cells; type: cell-based, human; conditions: 48 h

- p65 associated with the PDGFRB promoter versus normal IgG control [2]: significantly higher levels
Substance: IL-15: recombinant human IL-15 (200-15); recombinant murine IL-15 in the mouse NK cell test
- PDGFRβ expression ([1]; cytokine 10 ng/ml, IL-15 effect dose- and time-dependent): induced robust expression of PDGFRβ
- PDGFRβ expression in CD56^bright NK cells ([1]; sorted CD56^bright NK cells, IL-15 10 ng/ml): not CD56^bright NK cells
- PDGFRβ expression in CD56^dim NK cells ([1]; sorted CD56^dim NK cells, IL-15 10 ng/ml): induced PDGFRβ expression only in CD56^dim NK cells

Substance: PDGF-D: recombinant human PDGF-DD (1159-SB-025), R&D Systems
- expression levels of BCL-2, BCL-XL, and MCL-1 ([3]; IL-15 10 ng/ml and PDGF-D 50 ng/ml): increased the expression levels
- receptor dependence of the BCL-2, BCL-XL, and MCL-1 increase ([3]; with anti-NKp44 or anti-PDGFRβ): NKp44-independent but PDGFRβ-dependent
